Type in all cases: cell-based
One test concerns A2058. As to the kind of experiment: Short-term growth-inhibition assay (Example 1). On the procedure: (§1) FIGS. 1A-1B: Short-term growth-inhibition assay of a panel of melanoma cell lines including BRAF (V600E) cell lines and an NRAS (Q61R) mutated cell line. FIG. 1A. Cells were treated with increasing concentrations of N-[3-[(5-Chloro-1H-pyrrolo[2,3-b]pyridin-3-yl)carbonyl]-2,4-difluorophenyl]-1-propanesulfonamide (PLX-4720) for 72 h and cell viability was determined using CellTiter-Blue by measuring the absorbance at 540 nm in a microplate reader. Error bars show data +standard error. Means were derived from four replicates (n=4). FIG. 1B. Long-term colony formation assay of the indicated cells. Cells were grown in the absence or presence of PLX-4720 at the indicated concentrations for 15-20 days. For each cell line, all dishes were fixed at the same time, stained and photographed. […]
(§2) The inventors quantified the effect of exposing these cell lines to PLX-4720 on the half-maximum inhibitory concentration (IC50) (Table 1).

In a further test the test system is Mel624. Briefly: Short-term growth-inhibition assay (Example 1). On the procedure:
as §1, §2

The subject of test [1] is eIF4E-eIF4G and eIF4E-4EBP1 interactions. As to the kind of experiment: Proximity ligation assay in cell lines. From the text:
FIGS. 4A-4B: The interactions between eIF4E and eIG4G (“Cap-ON”) and between […] (“Cap-OFF” interaction) are (FIG. 4A) visualized by the PLA technique and (FIG. 4B) quantified (number of points per 100 nucleus) using ImageJ for the indicated cell lines and treatments.
FIGS. 5A-5C: The interactions between eIF4E and eIF4G (“Cap-ON”) and between […] (“Cap-OFF” interaction) are (FIG. 5A) visualized by the PLA technique and (FIG. 5B) quantified (number of points per 100 nucleus) using ImageJ for the indicated cell lines and treatments. (FIG. 5C) Cells were treated with increasing concentrations of PLX-4720 for 72 h, and cell viability was determined using CellTiter-Blue by measuring the absorbance at 540 nm in a microplate reader. Error bars show datatstandard error. Means were derived from four replicates (n=4).
FIGS. 9A-9B: The formation of the eIF4F translation initiation complex is associated with resistance to anti-BRAF inhibitors. FIG. 9A: Quantification of the proximity ligation assay showing the number of red spots (corresponding to the interactions between eIF4E-elF4G or eIF4E-4EBP1) per 100 nuclei (quantified with the Volocity software). Data are means±s.d. (n=3). Significance determined by Mann-Whitney U test (*P<0.05, **P<0.01). FIG. 9B: The eIF4E-eIF4G and eIF4E-4EBP1 interactions detected by in situ proximity ligation assay in vemurafenib (6 μM)-treated (24 h) or untreated HT29 colon cancer cell line and BCPAP thyroid cancer cell line respectively. The interactions were visualised as red fluorescent spots by the scanner Olympus VS120. Cell nuclei were stained with DAPI (blue).
Proximity ligation assays (PLAs) were performed on both fixed and permeabilized transfected cell lines in chamber slides and TMA slides containing melanoma tissue. Following dewaxing and rehydrating of tissue sections, antigen retrieval was performed by heating the slides for 30 min at 95° C. in TE buffer, pH 9. […] The number of in situ PLA signals per cell was counted by semi-automated image analysis. […]

Setting [2] is: sensitive cell lines A375, Mel888, treated vs untreated.

This note sets out measurements from patent US20240393340A1, “PROGNOSIS AND PREDICTIVE BIOMARKERS AND BIOLOGICAL APPLICATIONS THEREOF” (INSTITUT GUSTAVE ROUSSY, priority 2013, published 2024).

Each structure is given as a SMILES string.

As for `CCCS(=O)(=O)Nc1ccc(F)c(C(=O)c2c[nH]c3ncc(Cl)cc23)c1F` [PLX-4720, N-[3-[(5-Chloro-1H-pyrrolo[2,3-b]pyridin-3-yl)carbonyl]-2,4-difluorophenyl]-1-propanesulfonamide], the “sensitivity of the cell line compared to the other BRAF (V600E)-mutated melanoma cell lines” value with A2058 (A2058, short-term and long-term proliferation assays, Example 1) is recorded as “less sensitive”; with Mel624 (Mel624, short-term and long-term proliferation assays, Example 1) it was “less sensitive”. In addition, the IC50 in the test with A2058 (Homo sapiens, A2058 cell line, read-out: half-maximum inhibitory concentration (IC50)) was found to be 2.4 µM; with Mel624 (Mel624 cell line, read-out: half-maximum inhibitory concentration (IC50)) it was 4.4 µM. In addition, the “Cap-ON and Cap-OFF interaction” value in test [1] (less sensitive / resistant cell lines Mel624, A2058) is reported as “didn't affect”. Also, in test [1] (setting [2]), the “eIF4E-4EBP1 (Cap-OFF) interaction” value is “increase”. The “eIF4E-eIF4G (Cap-ON) interaction” value in test [1] (setting [2]) is “reduced signal counts”.
